Experimental data: US10441548B2, “Aggregating microparticles for medical therapy” (GRAYBUG VISION, INC., priority 2015, dated 2019)

Assay: Acute non-GLP IVT ocular tolerability and toxicity study of sunitinib malate (free drug)
Type: in vivo, pigmented rabbits
Settings: single bilateral IVT injection in PBS, up to 7 days
Protocol: An acute, non-GLP IVT study was conducted to evaluate the ocular tolerability and toxicity of sunitinib malate (free drug) for up to 7 days following a single IVT injection. Sunitinib malate was formulated in phosphate buffered saline and injected bilaterally (0.1 mL) at 0.125 or 1.25 mg per eye.
FIG. 13A, FIG. 13B, and FIG. 13C illustrate select PK profiles for sunitinib malate in the retina, vitreous, and plasma, respectively, from pigmented rabbits.

In the case of CCN(CC)CCNC(=O)c1c(C)[nH]c(/C=C2\C(=O)Nc3ccc(F)cc32)c1C [sunitinib malate], the “no-observed-adverse-effect-level (NOAEL) dose” value is reported as 0.125 mg/eye.
